Reference: PMC9115719, “Spatial Expression Analysis of Odorant Binding Proteins in Both Sexes of the Aphid Parasitoid Aphidius gifuensis and Their Ligand Binding Properties” (Frontiers in Physiology, 2022)
Where “and” joins values, the source holds several entries; their conditions need not be identical. Identical values can stand only once. Like-named read-outs stand apart in the source and are kept apart here.

Tests used:
[1] = molecular target: T1, AgifOBP7 (Aphidius gifuensis, UniProt A0A3S9LWE5); assay: Fluorescence competitive binding assay (1-NPN displacement) with recombinant AgifOBP7; details: for binding to AgifOBP7 in words: fluorescence competitive binding assay
T1 sequence (A0A3S9LWE5 entry or part of it): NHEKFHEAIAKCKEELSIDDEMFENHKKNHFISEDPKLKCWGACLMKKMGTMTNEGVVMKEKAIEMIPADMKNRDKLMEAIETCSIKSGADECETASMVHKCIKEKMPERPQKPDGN
Procedure: (§1) Fluorescence intensity was recorded in a right angle configuration on a Lengguang 970CRT spectrofluorimeter (Shanghai Jingmi, China) at room temperature using a 1 cm light path fluorimeter quartz cuvette. A slit width of 10 nm was selected for both excitation and emission. The measured fluorescence intensities were corrected for both blank signals due to protein emission and scattered excitation light. The spectral data were processed using the software 970CRT 2.0l. Fluorescence binding experiments were conducted in […] Tris-HCl buffer, pH 7.4, at room temperature. The binding affinity for N-phenyl-1-naphthylamine (1-NPN) was determined by adding aliquots of a 1 mM stock solution of 1-NPN dissolved in spectrophotometric grade methanol into a 2 μM protein sample. The fluorescence of 1-NPN was excited at 337 nm, and emission was recorded between 350 and 500 nm. Spectra were recorded with a high-speed scan. All ligands used in competitive experiments were dissolved in spectrophotometric grade methanol. In competition assays, aliquots of the competing ligands were added into a 2 μM protein solution in the presence of a given concentration of 1-NPN. To estimate the binding affinities of each AgifOBP for a variety of different ligands, we monitored the decrease in 1-NPN fluorescence due to the ability of different odorants to displace 1-NPN and determined the Ki value for each compound. To determine the dissociation constants, the intensity values corresponding to the maximum fluorescence emissions were plotted against the cumulative 1-NPN concentration. The amount of bound ligand was calculated from the fluorescence intensity values by assuming that the protein was 100% active, with a stoichiometry of 1:1 protein: ligand at saturation. The curves were linearized using Scatchard plots. The value of K1-NPN was estimated on a direct plot by nonlinear regression with an equation corresponding to a single binding site using Prism 7 (GraphPad Software, Inc., United States), and the IC50 was defined as the concentration of a competitor that caused a 50% reduction in fluorescence intensity. The dissociation constants of the inhibitors (Ki) were calculated according to the formula Ki = [IC50]/(1+[1-NPN]/K1-NPN), in which [1-NPN] represents the free 1-NPN concentration and K1-NPN represents the dissociation constant for AgifOBPs/1-NPN ([Ban et al., 2003]; [Zhong et al., 2012]; [Sun et al., 2016]; [Fan et al., 2017]; [Qin et al., 2020]; [Wang et al., 2021b]). All fluorescence competitive binding assays were performed in three independent replicates, and Ki dates are present as means ± SD.
(§2) FIGURE 5 Expression and binding properties of AgifOBP7 and AgifOBP9 with candidate ligands. (A) Expression and purification of AgifOBP7, (B) Expression and purification of AgifOBP9. Line M: molecular weight PR 1910 (11–180 KDa) Marker, 11, 17, 25, 35, 48, 63, 75, 100, 135, 180 KDa; IN: Induced pET-28a (+)/AgifOBP7/9; Super: pET-28a (+)/AgifOBP7/9 Supernatant; IB: pET-28a (+)/AgifOBP7/9 Inclusion body; Pur: Purified pET-28a (+)/AgifOBP7/9 without His-tag. (C,D) Binding curves of AgifOBP7 and AgifOBP9 with N-phenyl-1-naphthylamine (1-NPN) in 50 mM Tris-HCl buffer (pH 7.4). (E,F) Competitive binding curves of AgifOBP7 and AgifOBP9 to components of aphid alarm pheromones ((E)-beta-farnesene, (-)-α-pinene, (-)-β-pinene, (+)-limonene, (E)-beta-farnesene derivative (CAU-II-11); aphid sexual pheromone (4aSR 7SR 7aRS)-nepetalactone, the volatiles of wheat green leaf (cis-3-hexen-1-ol) and aphid induced plant main volatiles (methyl salicylate, 6-methyl-5-hepten-2-one). A mixture of the recombinant protein and N-phenyl-1-naphthylamine (1-NPN) in 50 mM Tris-HCl buffer (pH 7.4) at the concentration of 2 μM was titrated with 1 mM solutions of each competing ligand to a final concentration range of 2–16 μM. Fluorescence values are presented as percent of the values in the absence of competitor. Date are the means ± SD of three independent experiments.

[2] = molecular target: T2, AgifOBP9 (Aphidius gifuensis, UniProt A0A3Q9EL79, L121S); assay: Fluorescence competitive binding assay (1-NPN displacement) with recombinant AgifOBP9; details: for Ki: Tris-HCl pH 7.4, Ki = [IC50]/(1+[1-NPN]/K1-NPN), means ± SD, three replicates
T2 sequence (A0A3Q9EL79 entry or part of it L121S): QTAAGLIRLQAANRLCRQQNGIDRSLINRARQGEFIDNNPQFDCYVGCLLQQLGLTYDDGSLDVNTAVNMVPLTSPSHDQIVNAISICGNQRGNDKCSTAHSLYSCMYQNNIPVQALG
Procedure: as §1, §2

[3] = molecular target: T1, AgifOBP7; assay: Binding of fluorescent probe 1-NPN to AgifOBP7; details: 2 μM protein, 50 mM Tris-HCl pH 7.4; read-out: dissociation constant of AgifOBP7/1-NPN complex
Procedure: (§3) Fluorescence intensity was recorded in a right angle configuration on a Lengguang 970CRT spectrofluorimeter (Shanghai Jingmi, China) at room temperature using a 1 cm light path fluorimeter quartz cuvette. A slit width of 10 nm was selected for both excitation and emission. The measured fluorescence intensities were corrected for both blank signals due to protein emission and scattered excitation light. The spectral data were processed using the software 970CRT 2.0l. Fluorescence binding experiments were conducted in […] Tris-HCl buffer, pH 7.4, at room temperature. […] The fluorescence of 1-NPN was excited at 337 nm, and emission was recorded between 350 and 500 nm. Spectra were recorded with a high-speed scan. […] To estimate the binding affinities of each AgifOBP for a variety of different ligands, we monitored the decrease in 1-NPN fluorescence due to the ability of different odorants to displace 1-NPN and determined the Ki value for each compound. To determine the dissociation constants, the intensity values corresponding to the maximum fluorescence emissions were plotted against the cumulative 1-NPN concentration. The amount of bound ligand was calculated from the fluorescence intensity values by assuming that the protein was 100% active, with a stoichiometry of 1:1 protein: ligand at saturation. […]

[4] = molecular target: T2, AgifOBP9; assay: Binding of fluorescent probe 1-NPN to AgifOBP9; details: 2 μM protein, 50 mM Tris-HCl pH 7.4; read-out: dissociation constant of AgifOBP9/1-NPN complex
Procedure: as §3

[5] = displacement of 1-NPN, 2 μM protein, Tris-HCl pH 7.4, room temperature, read-out: OBP7 IC50
[6] = displacement of 1-NPN, 2 μM protein, Tris-HCl pH 7.4, Ki = [IC50]/(1+[1-NPN]/K1-NPN), means ± SD, three replicates, read-out: OBP7 Ki
[7] = displacement of 1-NPN, 2 μM protein, Tris-HCl pH 7.4, room temperature, read-out: OBP9 IC50
[8] = displacement of 1-NPN, 2 μM protein, read-out: OBP9 Ki
[9] = OBP9 Ki, displacement of 1-NPN, 2 μM protein

SMILES	IC50 [1, 5]	Ki [1, 6]	binding to AgifOBP7 in words [1]	IC50 [2, 7]	Ki [2, 8]	IC50 [1]	Ki [1]	IC50 [2]	Ki [2, 9]	other results
C=C1CCC2CC1C2(C)C (stereo not drawn) [(-)-β-Pinene]	> 30 µM	> 30 µM	not much	11.9 ± 1.27 µM	3.06 ± 0.33 µM	–	–	–	–	Ki ([2]; displacement of 1-NPN, 2 μM protein, listed as (-)-β-pinene, read-out: OBP9 Ki): < 10 µM
CC(=O)CCC=C(C)C [6-Methyl-5-hepten-2-one]	–	–	not much	–	–	> 30 µM	> 30 µM	22.3 ± 3.38 µM	< 10 µM and 5.76 µM	–
C=CC(=C)CC/C=C(\C)CCC=C(C)C [(E)-β-Farnesene]	> 30 µM	20.3 ± 1.99 µM	–	17.8 ± 1.69 µM	4.6 ± 0.43 µM	–	–	–	–	Ki ([2]; displacement of 1-NPN, 2 μM protein, listed as EBF, read-out: OBP9 Ki): < 10 µM
CC1=COC(=O)[C@H]2[C@@H]1CC[C@@H]2C [(4aSR 7SR 7aRS)-Nepetalactone]	> 30 µM	16.1 ± 3.49 µM	–	9.03 ± 0.31 µM	2.33 ± 0.08 µM	–	–	–	–	Ki ([2]; displacement of 1-NPN, 2 μM protein, listed as (4aSR 7SR 7aRS)-nepetalactone, read-out: OBP9 Ki): < 10 µM
C=C(C)C1CC=C(C)CC1 (single isomer, unassigned; (+)) [(+)-Limonene]	> 30 µM	> 30 µM	not much	12.8 ± 0.25 µM	3.32 ± 0.06 µM	–	–	–	–	Ki ([2]; displacement of 1-NPN, 2 μM protein, listed as (+)-limonene, read-out: OBP9 Ki): < 10 µM
CC1=CCC2CC1C2(C)C (stereo not drawn) [(-)-α-Pinene]	> 30 µM	> 30 µM	not much	24.1 ± 3.42 µM	6.22 ± 0.88 µM	–	–	–	–	Ki ([2]; displacement of 1-NPN, 2 μM protein, listed as (-)-α-pinene, read-out: OBP9 Ki): < 10 µM
COC(=O)c1ccccc1O [Methyl salicylate]	–	–	not much	–	–	> 30 µM	> 30 µM	13.3 ± 2.99 µM	< 10 µM and 3.43 µM	–
CC/C=C\CCO [cis-3-Hexenol]	–	–	not much	–	–	> 30 µM	> 30 µM	17 ± 0.33 µM	< 10 µM and 4.39 µM	–
c1ccc(Nc2cccc3ccccc23)cc1 [1-NPN, N-phenyl-1-naphthylamine]	–	–	–	–	–	–	–	–	–	Kd [3]: 1.69 ± 0.27 µM; Kd [4]: 0.69 ± 0.24 µM
COc1cccc(C(=O)OC/C=C(\C)CCC=C(C)C)c1O [CAU-II-11, (E)-3,7-dimethylocta-2,6-dien-1-yl-2-hydroxy-3-methoxybenzoate]	–	–	–	–	–	18.6 ± 1.73 µM	8.5 ± 0.73 µM	4.15 ± 0.33 µM	1.07 ± 0.08 µM	–
